According to ChEMBL document CHEMBL1201862, “PubChem BioAssay data set” (2004):
Active and inactive are the calls of the source.

Columns and labels:
[1] = HEK-293T cell viability reduction – luminescence, B-cell screen hits, cytotoxicity control for BCR NF-kB inhibitor project, dose response (AID 489021); format: functional, cell-based;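 note: HEK-293T cells carrying an NF-kB luciferase reporter; cells exposed to compound for about 14 hours before viability readout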
[2] = A cytotoxicity screen of small molecule inhibitors of the PhoP region in Salmonella typhi identified in the primary screen. [Related pubchem assays: 1850, 1864, 1985 ]; format: functional
[3] = viability loss in THP-1 monocytes – THP-1 cells, cytotoxicity control for Vif-APOBEC3G degradation inhibitor project, dose response (AID 1117359); format: functional; conditions: THP-1
[4] = NIH3T3 cell viability loss – ATP luminescence, mouse fibroblasts, counter-screen, dose response (AID 2010); format: functional, cell-based;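 note: cells exposed to compound for about 90 hours before reading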
[5] = Trypanosoma cruzi growth suppression in host cells – NIH3T3 host cells, beta-gal luminescence, confirmation (AID 2044); format: functional, cell-based;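 note: intracellular parasites grown in NIH/3T3 mouse fibroblasts as host cells; luminescent beta-galactosidase reporter signal from transgenic T. cruzi replicating inside host cells; inhibitors lower the luminescence signal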
H4 = test: Luminescence Cell-Based Dose Response HTS to Identify Activators of 5'UTR Stem-Loop Driven Prion Protein mRNA Translation in H4 Neuroglioblastoma Cells. [Related pubchem assays: 1829 (Project Summary), 1814 (Primary HTS)]; format: functional; conditions: Homo sapiens
[6] = target: T1, Replicative DNA helicase DnaB (Mycobacterium tuberculosis, UniProt P9WMR3); test: DnaB intein splicing inhibitors, dose response, biochemical, cell-free fluorescence (AID 449749); format: functional
T1 sequence (P9WMR3 whole entry): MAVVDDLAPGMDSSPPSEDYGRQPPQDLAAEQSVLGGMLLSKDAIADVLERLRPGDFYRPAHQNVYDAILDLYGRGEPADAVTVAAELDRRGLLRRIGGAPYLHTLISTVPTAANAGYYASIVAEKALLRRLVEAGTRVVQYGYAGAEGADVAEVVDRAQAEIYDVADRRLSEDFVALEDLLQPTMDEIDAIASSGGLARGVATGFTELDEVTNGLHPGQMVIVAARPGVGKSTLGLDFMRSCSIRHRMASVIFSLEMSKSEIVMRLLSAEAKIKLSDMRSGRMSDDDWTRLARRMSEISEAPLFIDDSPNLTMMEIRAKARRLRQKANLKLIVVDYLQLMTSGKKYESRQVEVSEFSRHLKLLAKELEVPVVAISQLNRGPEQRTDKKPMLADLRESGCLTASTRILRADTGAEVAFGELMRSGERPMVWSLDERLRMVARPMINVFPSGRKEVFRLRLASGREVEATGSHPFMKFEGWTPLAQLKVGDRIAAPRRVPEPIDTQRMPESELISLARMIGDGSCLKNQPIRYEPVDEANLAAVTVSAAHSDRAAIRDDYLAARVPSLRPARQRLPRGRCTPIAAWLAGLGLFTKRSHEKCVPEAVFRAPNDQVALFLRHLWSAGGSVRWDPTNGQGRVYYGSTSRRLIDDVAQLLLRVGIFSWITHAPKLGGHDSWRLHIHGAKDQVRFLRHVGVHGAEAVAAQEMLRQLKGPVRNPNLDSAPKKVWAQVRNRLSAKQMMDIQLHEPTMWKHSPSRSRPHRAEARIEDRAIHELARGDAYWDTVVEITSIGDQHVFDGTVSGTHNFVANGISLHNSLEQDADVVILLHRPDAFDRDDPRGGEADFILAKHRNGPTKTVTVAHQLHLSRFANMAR

Protein RecA = target: T2, Protein RecA (Mycobacterium tuberculosis, UniProt P9WHJ3); test: Fluorescence Cell-Free Homogeneous Dose Retest to Identify Inhibitors of RecA-Intein Splicing Activity. [Related pubchem assays (depositor defined):AID2097, AID2223, AID489010, AID492950]; format: functional
T2 sequence (P9WHJ3 whole entry): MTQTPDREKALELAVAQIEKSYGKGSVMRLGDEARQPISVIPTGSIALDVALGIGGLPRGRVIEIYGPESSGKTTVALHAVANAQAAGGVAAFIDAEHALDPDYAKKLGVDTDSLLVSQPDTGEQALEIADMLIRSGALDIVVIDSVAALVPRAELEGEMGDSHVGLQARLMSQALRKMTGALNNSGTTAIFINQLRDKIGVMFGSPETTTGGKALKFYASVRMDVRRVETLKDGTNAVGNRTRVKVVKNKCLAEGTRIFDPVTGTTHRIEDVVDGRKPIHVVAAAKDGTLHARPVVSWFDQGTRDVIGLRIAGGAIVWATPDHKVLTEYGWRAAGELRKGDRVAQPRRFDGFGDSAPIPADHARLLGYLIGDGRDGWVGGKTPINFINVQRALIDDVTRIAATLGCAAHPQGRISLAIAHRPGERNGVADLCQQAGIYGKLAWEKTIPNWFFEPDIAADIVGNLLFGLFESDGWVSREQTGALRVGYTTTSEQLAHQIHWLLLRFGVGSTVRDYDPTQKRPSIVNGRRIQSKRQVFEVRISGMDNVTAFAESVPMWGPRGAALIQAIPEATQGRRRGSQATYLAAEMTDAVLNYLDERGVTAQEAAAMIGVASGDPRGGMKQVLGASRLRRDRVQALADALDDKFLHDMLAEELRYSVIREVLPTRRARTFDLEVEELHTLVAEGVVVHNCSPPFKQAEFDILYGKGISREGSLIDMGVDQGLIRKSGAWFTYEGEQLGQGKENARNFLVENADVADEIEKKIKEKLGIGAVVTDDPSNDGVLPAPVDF

[7] = Luminescence Cell-Based Dose Response HTS to Identify Activators of Luciferase Translation or Activity in H4 […] Cells. [Related pubchem assays: 1829 (Project Summary), 1814 (Primary HTS)]; format: functional
[8] = Luminescence Cell-Based Dose Confirmation HTS to Identify Activators of 5'UTR Stem-Loop Driven Alpha-Synuclein mRNA Translation in H4 Neuroglioblastoma Cells. [Related pubchem assays: 1829 (Project Summary), 1814 (Primary HTS)]; format: functional
[9] = target: T3, Histone-lysine N-methyltransferase NSD2 (Homo sapiens, UniProt O96028); format: biochemical
T3 sequence (O96028 whole entry): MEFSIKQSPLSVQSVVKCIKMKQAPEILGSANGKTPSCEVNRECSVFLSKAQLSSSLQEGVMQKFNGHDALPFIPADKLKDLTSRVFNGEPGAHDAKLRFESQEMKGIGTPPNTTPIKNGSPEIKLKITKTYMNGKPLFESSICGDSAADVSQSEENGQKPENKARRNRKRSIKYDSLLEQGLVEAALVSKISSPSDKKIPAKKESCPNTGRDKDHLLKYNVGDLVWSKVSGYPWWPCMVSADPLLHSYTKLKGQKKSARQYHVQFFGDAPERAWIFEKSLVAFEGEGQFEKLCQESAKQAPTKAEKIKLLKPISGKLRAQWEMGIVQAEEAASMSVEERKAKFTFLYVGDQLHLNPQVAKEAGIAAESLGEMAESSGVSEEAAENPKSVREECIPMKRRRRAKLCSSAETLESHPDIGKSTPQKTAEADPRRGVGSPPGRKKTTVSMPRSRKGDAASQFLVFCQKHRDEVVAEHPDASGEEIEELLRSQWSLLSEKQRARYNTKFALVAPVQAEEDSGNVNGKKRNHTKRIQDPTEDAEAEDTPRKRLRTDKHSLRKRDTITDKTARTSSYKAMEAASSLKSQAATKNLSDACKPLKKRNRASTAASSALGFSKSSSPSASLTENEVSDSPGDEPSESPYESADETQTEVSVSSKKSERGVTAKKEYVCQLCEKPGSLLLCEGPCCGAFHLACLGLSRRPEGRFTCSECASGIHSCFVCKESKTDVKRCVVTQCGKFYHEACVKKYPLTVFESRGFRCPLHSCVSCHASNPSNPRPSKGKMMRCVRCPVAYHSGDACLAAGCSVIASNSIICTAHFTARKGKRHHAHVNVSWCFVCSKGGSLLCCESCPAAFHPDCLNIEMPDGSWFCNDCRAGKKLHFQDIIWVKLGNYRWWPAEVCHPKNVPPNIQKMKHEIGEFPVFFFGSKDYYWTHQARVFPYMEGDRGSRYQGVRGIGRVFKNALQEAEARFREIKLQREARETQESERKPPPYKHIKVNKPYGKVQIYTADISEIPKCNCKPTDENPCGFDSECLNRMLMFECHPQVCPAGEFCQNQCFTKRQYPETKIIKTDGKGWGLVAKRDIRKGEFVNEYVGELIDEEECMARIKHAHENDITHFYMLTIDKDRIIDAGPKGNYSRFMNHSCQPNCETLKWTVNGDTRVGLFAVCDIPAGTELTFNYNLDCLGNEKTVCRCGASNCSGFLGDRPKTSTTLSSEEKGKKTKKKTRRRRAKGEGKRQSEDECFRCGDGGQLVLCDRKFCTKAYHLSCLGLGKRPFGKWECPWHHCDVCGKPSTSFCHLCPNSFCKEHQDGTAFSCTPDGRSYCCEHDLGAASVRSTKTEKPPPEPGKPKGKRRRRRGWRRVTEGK

[10] = target: T4, DNA repair protein RAD52 homolog (Homo sapiens, UniProt P43351); format: functional, biochemical
T4 sequence (P43351 whole entry): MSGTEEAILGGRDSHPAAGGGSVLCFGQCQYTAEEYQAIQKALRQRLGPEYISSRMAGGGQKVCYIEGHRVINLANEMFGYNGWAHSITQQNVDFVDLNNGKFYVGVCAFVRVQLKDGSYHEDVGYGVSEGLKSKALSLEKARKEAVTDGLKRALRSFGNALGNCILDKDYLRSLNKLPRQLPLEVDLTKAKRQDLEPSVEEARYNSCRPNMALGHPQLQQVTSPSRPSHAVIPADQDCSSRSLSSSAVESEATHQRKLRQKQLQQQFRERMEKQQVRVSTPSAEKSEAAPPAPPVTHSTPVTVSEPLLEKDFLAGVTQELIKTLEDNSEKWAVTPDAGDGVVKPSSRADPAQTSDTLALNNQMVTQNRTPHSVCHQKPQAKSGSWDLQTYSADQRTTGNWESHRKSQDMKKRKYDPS

[11] = target: Glyceraldehyde-3-phosphate dehydrogenase (Homo sapiens, UniProt P04406)
Glyceraldehyde-3-phosphate dehydrogenase, sequence (P04406 whole entry): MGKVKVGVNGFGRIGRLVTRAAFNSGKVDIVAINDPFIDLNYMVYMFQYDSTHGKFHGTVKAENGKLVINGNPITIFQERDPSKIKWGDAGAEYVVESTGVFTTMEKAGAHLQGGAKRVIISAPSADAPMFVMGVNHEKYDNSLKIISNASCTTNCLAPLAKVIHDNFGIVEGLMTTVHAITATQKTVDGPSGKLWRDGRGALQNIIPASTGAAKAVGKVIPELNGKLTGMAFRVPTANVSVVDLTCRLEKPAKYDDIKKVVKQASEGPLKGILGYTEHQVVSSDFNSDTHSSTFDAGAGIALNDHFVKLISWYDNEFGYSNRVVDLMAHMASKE

[12] = target: Heat shock protein HSP 90-alpha (Homo sapiens, UniProt P07900); format: functional, organism-based
cells = format: functional
[13] = Dd2 malaria parasite growth inhibition potency – SYBR Green, dry powder samples, dose response (AID 1159566); format: functional, cell-based;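 note: potency for growth inhibition with lower SYBR green DNA signal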
[14] = P. falciparum Dd2 growth inhibitors, dose response, SYBR Green, cherry-picked samples (AID 1159567); format: functional, cell-based
[15] = growth inhibition of PfATP4-mutant resistant parasites – NITD609-resistant line, SYBR Green, dry powder, dose response (AID 1159571); format: functional, cell-based;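 note: parasites synchronized at ring stage by sorbitol before testing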
[16] = growth inhibition of yeast DHODH-expressing 3D7 parasites – SYBR Green, dry powder samples, dose response (AID 1159570); format: functional, cell-based;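 note: parasite growth measured after 72 hours of compound exposure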
Protein skinhead-1 = target: T5, Protein skinhead-1 (Caenorhabditis elegans, UniProt P34707); format: functional
T5 sequence (P34707 whole entry): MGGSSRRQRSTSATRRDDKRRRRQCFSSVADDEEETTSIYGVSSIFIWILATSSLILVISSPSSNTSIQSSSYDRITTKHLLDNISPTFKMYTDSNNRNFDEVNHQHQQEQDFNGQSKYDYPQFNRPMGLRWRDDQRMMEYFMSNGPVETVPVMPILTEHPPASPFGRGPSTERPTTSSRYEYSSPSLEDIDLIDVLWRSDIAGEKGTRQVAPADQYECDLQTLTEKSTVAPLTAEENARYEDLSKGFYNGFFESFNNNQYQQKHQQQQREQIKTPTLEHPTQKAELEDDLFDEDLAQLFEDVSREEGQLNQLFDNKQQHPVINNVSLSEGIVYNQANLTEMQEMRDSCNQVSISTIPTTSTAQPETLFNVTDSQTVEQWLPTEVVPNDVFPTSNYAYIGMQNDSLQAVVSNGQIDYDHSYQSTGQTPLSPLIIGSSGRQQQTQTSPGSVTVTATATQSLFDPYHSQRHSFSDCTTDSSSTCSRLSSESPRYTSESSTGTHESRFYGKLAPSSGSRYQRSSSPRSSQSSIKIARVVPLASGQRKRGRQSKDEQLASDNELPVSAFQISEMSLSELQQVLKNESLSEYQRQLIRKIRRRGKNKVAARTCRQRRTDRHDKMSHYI

Cc1cc(C)c2nc(NC(=O)[C@@H](NC(=O)c3cccc(S(=O)(=O)N4CCOCC4)c3)C(C)C)sc2c1
IC50 [1]: > 80 µM (inactive)

O=C(CCNS(=O)(=O)c1cccc2nonc12)N1CCN(c2cccc(Cl)c2)CC1
EC50 [2]: > 50 µM (active)

CCN1CCN(c2ccc(S(=O)(=O)N3CCCCC3)cc2NC(=O)Cc2ccc(Cl)c(Cl)c2)CC1
CC50 [3]: 21.2 µM (active) | EC50 [4]: 6.52 µM (active) | EC50 [5]: 0.162 µM (active)

CC(C)c1n[nH]c2c1C(c1ccco1)C(C#N)=C(N)O2 (stereo unspecified)
EC50 (H4): 92.5 µM (active) | AC50 [6]: 32.4 µM (active) | EC50 (Protein RecA): 3.05 µM (active) | IC50 [1]: > 80 µM (inactive) | EC50 [7]: > 120 µM (not active) | EC50 [8]: > 120 µM (not active)

CN1CCN(c2ccc(N)cc2Cl)CC1
AC50 [9]: > 20 µM (inactive) | AC50 [10]: 0.931 µM (active)

CC(C)(C)Nc1c2ccccc2nc2ccccc12
EC50 [2]: > 50 µM (active)

CCN(CC)CCOC(=O)c1ccc(NC(=O)CCCN2C(=O)S/C(=C/c3ccc(OC)cc3)C2=S)cc1
IC50 [1]: > 80 µM (inactive)

C[C@H]1CN(C2=C(Cl)C(=O)N(c3ccc(C(F)(F)F)cc3)C2=O)CCN1
IC50 [11]: > 50 µM (inconclusive)

N=c1c(C(=O)NC2CCCC2)cc2c(=O)n3ccccc3nc2n1CCN1CCOCC1
IC50 [1]: > 80 µM (inactive)

COC(=O)C(C)Oc1cc(C)cc2oc(=O)c3c(c12)CCC3 (stereo unspecified)
IC50 [1]: > 80 µM (inactive)

O=C(Cc1ccc(F)cc1)NC1CCCC1
EC50 [2]: > 50 µM (active)

O=C1C(Cl)=C(N2CCN(Cc3ccc4c(c3)OCO4)CC2)C(=O)N1c1ccc(Cl)nc1
IC50 [11]: > 50 µM (inconclusive)

N#C/C(=C\c1ccc([N+](=O)[O-])o1)C(=O)Nc1ccc(F)cc1
CC50 [3]: > 40 µM (active) | AC50 [12]: 0.444 µM (active)

CCOc1ccccc1NC(=O)Nc1ccncc1
EC50 [2]: > 50 µM (active)

Cc1cs/c(=N\c2cccnc2)n1CC1CCCCC1
IC50 (cells): > 50 µM (active)

C[C@@H]1CN([C@@H](C)CO)C(=O)c2cccc(NC(=O)Nc3ccc4c(c3)OCO4)c2O[C@@H]1CN(C)C(=O)Nc1ccc2c(c1)OCO2
AC50 [13]: 0.954 µM (active) | AC50 [14]: 1.2 µM (active) | AC50 [15]: 0.865 µM (active) | AC50 [16]: 1.52 µM (active)

O=[N+]([O-])c1ccc2nc(-c3ccccc3)oc2c1
CC50 [3]: > 40 µM (active) | IC50 (Protein skinhead-1): 63.6 µM (inactive)

Cc1nc(NC(=N)N)nc2ccccc12
AC50 [10]: 13.7 µM (active)
